In experiment [1] the test system is Aves. As to the kind of experiment: Relative yield of the product (3b) derived from the compound with DMAPP in the enzymatic reaction catalyzed by FPP synthase from avian liver; ND = Not detected. In kind it is functional.
The test system of experiment [2] is Aves. Description: Relative yield of the product (4d) derived from the compound with DMAPP in the enzymatic reaction catalyzed by FPP synthase from avian liver; ND = Not detected. In kind it is functional.
Experiment [3] relates to Geobacillus stearothermophilus. As to the kind of experiment: Relative yield of the product (4d) derived from the compound with GPP in the enzymatic reaction catalyzed by FPP synthase from B. stearothermophilus; ND = Not detected. In kind it is functional.
The test system of experiment [4] is Geobacillus stearothermophilus. As to the kind of experiment: (§1) Relative yield of the product (3b) derived from the compound with DMAPP in the enzymatic reaction catalyzed by FPP synthase from Bacillus stearothermophilus. In kind it is functional.
For experiment [5], the species on record is Sus scrofa. Description: Relative yield of the product (3b) derived from the compound with DMAPP in the enzymatic reaction catalyzed by FPP synthase from porcine liver; ND = Not detected. In kind it is functional, organism-based.
The species named for experiment [6] is Sus scrofa. As to the kind of experiment: Relative yield of the product (4d) derived from the compound with DMAPP in the enzymatic reaction catalyzed by FPP synthase from porcine liver; ND = Not detected. In kind it is functional.
In experiment [7] the test system is Aves. Description: Relative yield of the product (3c) derived from the compound with DMAPP in the enzymatic reaction catalyzed by FPP synthase from avian liver. In kind it is functional.
Experiment [8] has as its system Aves. As to the kind of experiment: Relative yield of the product (4c) derived from the compound with GPP in the enzymatic reaction catalyzed by FPP synthase from avian liver; ND = Not detected. In kind it is functional.
In experiment [9] the test system is Geobacillus stearothermophilus. As to the kind of experiment: Relative yield of the product (3c) derived from the compound with DMAPP in the enzymatic reaction catalyzed by FPP synthase from Bacillus stearothermophilus. In kind it is functional.
Experiment [10] concerns Geobacillus stearothermophilus. Description: Relative yield of the product (4c) derived from the compound with GPP in the enzymatic reaction catalyzed by FPP synthase from Bacillus stearothermophilus. In kind it is functional.
The species named for experiment [11] is Sus scrofa. As to the kind of experiment: Relative yield of the product (3c) derived from the compound with DMAPP in the enzymatic reaction catalyzed by FPP synthase from porcine liver. In kind it is functional.
The species named for experiment [12] is Sus scrofa. Description: Relative yield of the product (4c) derived from the compound with GPP in the enzymatic reaction catalyzed by FPP synthase from porcine liver. In kind it is functional.
The target of experiment [13] is T1, Farnesyl diphosphate synthase (Geobacillus stearothermophilus) (UniProt Q08291).
T1 sequence (whole entry): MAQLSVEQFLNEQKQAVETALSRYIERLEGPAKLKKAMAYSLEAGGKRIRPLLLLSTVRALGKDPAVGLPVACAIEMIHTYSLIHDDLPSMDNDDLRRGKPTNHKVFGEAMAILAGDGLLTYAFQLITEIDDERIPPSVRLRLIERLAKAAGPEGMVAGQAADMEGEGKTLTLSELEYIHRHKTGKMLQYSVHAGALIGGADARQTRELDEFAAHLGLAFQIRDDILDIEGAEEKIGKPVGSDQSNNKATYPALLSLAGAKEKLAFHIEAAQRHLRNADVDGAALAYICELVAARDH
The description is as §1. In kind it is functional.

In experiment [14] the target is T1, Farnesyl diphosphate synthase (Geobacillus stearothermophilus). Description: Relative yield of the product (4b') derived from the compound with GPP in the enzymatic reaction catalyzed by FPP synthase from Bacillus stearothermophilus. In kind it is functional.
For experiment [15] the target is unchanged. Description: Relative yield of the product (4b) derived from the compound with DMAPP in the enzymatic reaction catalyzed by FPP synthase from Bacillus stearothermophilus. In kind it is functional.
Experiment [16] relates to Farnesyl diphosphate synthase (Aves). As to the kind of experiment: Relative yield of the product (4b') derived from the compound with GPP in the enzymatic reaction catalyzed by FPP synthase from avian liver.
Experiment [17] shares this test system. Description: Relative yield of the product (3b) derived from the compound with DMAPP in the enzymatic reaction catalyzed by FPP synthase from avian liver.
For experiment [18] the test system is unchanged. Description: Relative yield of the product (4b) derived from the compound with DMAPP in the enzymatic reaction catalyzed by FPP synthase from avian liver.
Experiment [19] relates to Farnesyl diphosphate synthase (Sus scrofa). Description: Relative yield of the product (4b') derived from the compound with GPP in the enzymatic reaction catalyzed by FPP synthase from porcine liver.
For experiment [20] the test system is unchanged. Description: Relative yield of the product (4b) derived from the compound with DMAPP in the enzymatic reaction catalyzed by FPP synthase from porcine liver.
Experiment [21] shares this test system. Description: Relative yield of the product (3b) derived from the compound with DMAPP in the enzymatic reaction catalyzed by FPP synthase from porcine liver; ND = Not detected.

For three molecules, Production results are on record in ChEMBL document CHEMBL1130582, “Substrate specificity of thermostable farnesyl diphosphate synthase with alkyl group homologs of isopentenyl diphosphate” (1998).

As for `C=C(CCCC)CCOP(=O)(O)OP(=O)(O)O`, the Production entry in experiment [1] is “Not detected”; in [2] it was “Not detected”; in [3] it was “Not detected”; in experiment [4], 4%; in experiment [5], “Not detected”; in experiment [6], “Not detected”.
On to `C=C(CCC)CCOP(=O)(O)OP(=O)(O)O`, for which the Production in experiment [7] is 1%; in [8], “Not detected”; in experiment [9], 29%; in experiment [10], 10%; in experiment [11] it was 1.4%; in experiment [12], 1.8%.
Consider `C=C(CC)CCOP(=O)(O)OP(=O)(O)O`, for which the Production in [13] stood at 68%; in experiment [14], 48%; in experiment [15], 40%; in [16], 25%; in [17], 1%; in [18], 6.7%. In addition, the Production in [19] was 27%; in experiment [20], 10%; in experiment [21] it was “Not detected”.
